Test results as given in patent US20020177580A1, “Means and method for hormonal contraception” (priority 2001, published 2002).
“Also recorded” adds a separate entry of the source.

Columns and labels:
[1] = compared with commercially used synthetic progestogens; cited from earlier work
[2] = hormone replacement therapy with 17beta-estradiol dydrogesterone (Grisar et al., 1999); cited from earlier work
[3] = tested on: ovulation; settings: humans; reported by Claassen et al., Acta Endocrinologica (1967); cited from earlier work
[4] = tested on: women; assay: Clinical study with dydrogesterone as progestogen-only preparation (Example 5); type: in vivo, human; settings: 20 mg dydrogesterone once a day, uninterruptedly for 4 months
From the text: Women participating in the study described in these examples are all selected on the basis that they are users of ‘high’ dose monophasic ethinyl estradiol-containing combined oral contraceptives. The reasons for applying this selection criterion is that there is a dose-relationship between follicular development and ethinyl estradiol whether given alone or in combination with a progestogen, i.e. less follicular development in the presence of the higher dose. Participation of the females involved in the study starts at a moment of (almost) complete suppression of follicular development. This condition is not met if a female has her first day of bleeding in a natural cycle, after a tablet-free interval, or immediately after a low-dose combined oral contraceptive.
A clinical study with dydrogesterone as a progestogen-only preparation is conducted in 8 women who were selected on the basis of the criteria mentioned in Example 1. The 8 women receive a 20 mg dosage of dydrogesterone once a day, uninterruptedly during a period of 4 months.

**Q.** For `CC(=O)[C@H]1CC[C@H]2[C@@H]3C=CC4=CC(=O)CC[C@@]4(C)[C@@H]3CC[C@]12C` [dydrogesterone, 9β,10α-pregna-4,6-diene-3,20-dione], which “estrogenic, glucocorticoid, anabolic or androgenic properties” value [1] is on record?
**A.** The value was “does not exhibit estrogenic, glucocorticoid, anabolic or androgenic properties”.

**Q.** And the “adverse effects on blood pressure” value [2]?
**A.** Its value is “no adverse effects on blood pressure”.

**Q.** What about the inhibition of ovulation [3] of the same compound?
**A.** Its inhibition of ovulation is “cannot be used to inhibit ovulation; also recorded: does not inhibit ovulation in humans”.

**Q.** And the irregular bleeding [4]?
**A.** Its irregular bleeding is “some unpredictable irregular bleeding”.

**Q.** What about the menses flow [4] of the same compound?
**A.** Its menses flow is “reduction of the usual menses flow”.

**Q.** What about the ovulation inhibition [4] of the same compound?
**A.** Its ovulation inhibition is “Ovulation is inhibited”.
